{"source": "patent US4623662A", "about": "“Antiatherosclerotic ureas and thioureas” (American Cyanamid Company, priority 1985, dated 1986)"}
{"target": "T1, fatty acyl CoA: cholesterol acyl transferase (ACAT) (Rattus norvegicus, UniProt O70536)", "T1 construct": "The supernatant, containing the microsomal fraction, served as the source of the cholesterol-esterifying enzyme; from tissue; host or cells: rat adrenals, supernatant of 1,000 x g centrifugation containing the microsomal fraction", "T1 sequence (O70536 1-545)": "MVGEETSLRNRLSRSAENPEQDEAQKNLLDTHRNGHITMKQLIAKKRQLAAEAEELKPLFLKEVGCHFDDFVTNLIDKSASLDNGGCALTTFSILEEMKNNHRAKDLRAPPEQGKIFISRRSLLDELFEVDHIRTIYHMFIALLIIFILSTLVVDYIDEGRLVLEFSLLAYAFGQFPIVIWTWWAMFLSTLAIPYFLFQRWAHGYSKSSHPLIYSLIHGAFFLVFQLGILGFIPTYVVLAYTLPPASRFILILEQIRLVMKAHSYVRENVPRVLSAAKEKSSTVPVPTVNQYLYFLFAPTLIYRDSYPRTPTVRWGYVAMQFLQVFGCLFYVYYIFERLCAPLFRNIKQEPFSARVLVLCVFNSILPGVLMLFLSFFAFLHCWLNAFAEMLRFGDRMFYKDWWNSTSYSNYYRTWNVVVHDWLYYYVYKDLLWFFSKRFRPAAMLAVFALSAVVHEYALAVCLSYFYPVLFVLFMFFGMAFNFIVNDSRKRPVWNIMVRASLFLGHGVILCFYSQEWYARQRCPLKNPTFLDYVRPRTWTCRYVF", "assay": "Inhibition of fatty acyl CoA:cholesterol acyl transferase (ACAT), rat adrenal enzyme", "assay_type": "biochemical", "conditions": "not given", "method": "(§1) The compounds of the present invention were assayed for two types of biological activity related to their potential use as antiatherosclerotic agents. Compounds were tested in vitro for the ability to inhibit the enzyme fatty acyl CoA: cholesterol acyl transferase (ACAT) and in vivo for serum hypolipidemic activity as meausred by the ability to inhibit lipid absorption in rats.\n(§2) The compounds were tested for their ability to inhibit ACAT according to the following procedure: rat adrenals were homogenized in 0.2M monobasic potassium phosphate buffer, pH 7.4, and centrifuged at 1,000 times gravity for 15 minutes at 5° C. The supernatant, containing the microsomal fraction, served as the source of the cholesterol-esterifying enzyme, fatty acyl CoA:cholesterol acyl transferase (ACAT). A mixture comprising 50 parts of adrenal supernatant, 10 parts of bovine serum albumin (50 mg/ml), 3 parts of test compound (final concentration 5.2 μg/ml), and 500 parts of buffer was preincubated at 37° C. for 10 minutes. After treatment with 20 parts of oleoyl CoA (^14 C-0.4 μCi), the mixture was incubated at 37° C. for 10 minutes. A control mixture, omitting the test compound, was prepared and treated in the same manner. The lipids from the incubation mixture was extracted into an organic solvent and separated by thin-layer chromatography. The cholesteryl ester fraction was counted in a scintillation counter. This procedure is a modification of that described by Hashimoto, et al., Life Scie., 12 (Part II), 1-12 (1973).\n(§3) Compounds which produced statistically significant inhibition of the ACAT enzyme are considered to be active.\n(§4) In addition to the above described test and the results given in terms of percent inhibition, various compounds of this invention were tested by the same procedure at several concentrations. The results of this test are given in Table II in terms of IC50 (μM), that concentration which produced 50% inhibition of the ACAT enzyme.", "units": {"inhibition at 5.2 µg/mL": "%"}}
{"smiles": "CCCCCCCN(Cc1ccc(CCCC)cc1)C(=O)Nc1cccc(C(F)(F)F)c1", "note": "[1-(n-Heptyl)-1-[4-(n-butyl)benzyl]-3-(3-trifluoromethylphenyl)urea]", "inhibition at 5.2 µg/mL": 90}
{"target": "T1, fatty acyl CoA: cholesterol acyl transferase (ACAT)", "assay": "Inhibition of fatty acyl CoA:cholesterol acyl transferase (ACAT), rat adrenal enzyme", "assay_type": "biochemical", "conditions": "rat adrenal ACAT; final concentration 5.2 μg/ml; read-out: % Inhibition", "method": "as §1, §2, §3, §4", "units": {"inhibition at 5.2 µg/mL": "%"}}
{"smiles": "CCCCCOc1ccc(CN(Cc2ccc(CCCCC)cc2)C(=O)Nc2ccc(Cl)cc2C(F)(F)F)cc1", "note": "[1-(4-n-Pentylbenzyl)-1-(4-n-pentyloxybenzyl)-3-(2-trifluoromethyl-4-chlorophenyl)urea]", "inhibition at 5.2 µg/mL": 81}
{"smiles": "CCCCCOc1ccc(CN(Cc2ccc(CCCCC)cc2)C(=O)Nc2cccc(C(F)(F)F)c2)cc1", "note": "[1-(4-n-Pentylbenzyl)-1-(4-n-pentyloxybenzyl)-3-(3-trifluoromethylphenyl)urea]", "inhibition at 5.2 µg/mL": 85}
{"smiles": "CCCCN(Cc1c(Cl)cccc1Cl)C(=O)Nc1ccc(C)cc1C", "note": "[1-( -n-Butyl)-1-(2,6-dichlorobenzyl)-3-(2,4-dimethylphenyl)urea]", "inhibition at 5.2 µg/mL": 74.5}
{"smiles": "CCCCN(Cc1ccccc1Cl)C(=O)Nc1ccc(C)cc1C", "note": "[1-( -n-Butyl)-1-(2-chlorobenzyl)-3-(2,4-dimethylphenyl)urea]", "inhibition at 5.2 µg/mL": 95.5}
{"smiles": "CCCCN(Cc1ccccc1F)C(=O)Nc1ccc(C)cc1C", "note": "[1-( -n-Butyl)-1-(2-fluorobenzyl)-3-(2,4-dimethylphenyl)urea]", "inhibition at 5.2 µg/mL": 83.6}
{"smiles": "CCCCc1ccc(CN(CCCC)C(=O)Nc2ccc(C)cc2C)cc1", "note": "[1-( -n-Butyl)-1-(4- -n-butylbenzyl)-3-(2,4-dimethylphenyl)urea]", "inhibition at 5.2 µg/mL": 94.4}
{"smiles": "CCCCN(Cc1ccc(F)cc1)C(=O)Nc1ccc(C)cc1C", "note": "[1-( -n-Butyl)-1-(4-fluorobenzyl)-3-(2,4-dimethylphenyl)urea]", "inhibition at 5.2 µg/mL": 80.6}
{"smiles": "CCCCOc1ccc(CN(Cc2ccccc2)C(=O)Nc2cccc(C(F)(F)F)c2)cc1", "note": "[1-(n-Benzyl)-1-(4-n-butoxybenzyl)-3-(3-trifluoromethylphenyl)urea]", "inhibition at 5.2 µg/mL": 87}
{"smiles": "CCCCN(CC(C)(c1ccccc1)c1ccccc1)C(=O)Nc1ccc(C)cc1C", "note": "[1-(n-Butyl)-1-(2-methyl-2,2-diphenyl)ethyl-3-(2,4-dimethylphenyl)urea]", "inhibition at 5.2 µg/mL": 97.4}
{"smiles": "CCCCN(CCc1ccccc1)C(=O)Nc1ccc(C)cc1C", "note": "[1-(n-Butyl)-1-(2-phenylethyl)-3-(2,4-dimethylphenyl)urea]", "inhibition at 5.2 µg/mL": 87.9}
{"smiles": "CCCCN(Cc1ccc2c(c1)OCO2)C(=O)Nc1ccc(C)cc1C", "note": "[1-(n-Butyl)-1-(3,4-methylenedioxybenzyl)-3-(2,4-dimethylphenyl)urea]", "inhibition at 5.2 µg/mL": 88.2}
{"smiles": "CCCCN(CCCc1ccccc1)C(=O)Nc1ccc(C)cc1C", "note": "[1-(n-Butyl)-1-(3-phenylpropyl)-3-(2,4-dimethylphenyl)urea]", "inhibition at 5.2 µg/mL": 97.4}
{"smiles": "CCCCN(Cc1ccc(Cl)cc1)C(=O)Nc1ccc(C)cc1C", "note": "[1-(n-Butyl)-1-(4-chlorobenzyl)-3-(2,4-dimethylphenyl)urea]", "inhibition at 5.2 µg/mL": 94.6}
{"smiles": "CCCCCCOc1ccc(CN(CCCC)C(=O)Nc2c(C)cc(C)cc2C)cc1", "note": "[1-(n-Butyl)-1-(4-hexyloxybenzyl)-3-(2,4,6-trimethylphenyl)urea]", "inhibition at 5.2 µg/mL": 97.1}
{"smiles": "CCCCN(Cc1ccc(OC)cc1)C(=O)Nc1ccc(C)cc1C", "note": "[1-(n-Butyl)-1-(4-methoxybenzyl)-3-(2,4-dimethylphenyl)urea]", "inhibition at 5.2 µg/mL": 94.2}
{"smiles": "CCCCN(Cc1ccc(C)cc1)C(=O)Nc1ccc(C)cc1C", "note": "[1-(n-Butyl)-1-(4-methylbenzyl)-3-(2,4-dimethylphenyl)urea]", "inhibition at 5.2 µg/mL": 96.7}
{"smiles": "CCCCN(Cc1ccc(-c2ccccc2)cc1)C(=O)Nc1ccc(C)cc1C", "note": "[1-(n-Butyl)-1-(4-phenylbenzyl)-3-(2,4-dimethylphenyl)urea]", "inhibition at 5.2 µg/mL": 97.1}
{"smiles": "CCCCN(Cc1ccc(C(C)(C)C)cc1)C(=O)Nc1ccc(C)cc1C", "note": "[1-(n-Butyl)-1-(4-tert-butylbenzyl)-3-(2,4-dimethylphenyl)urea]", "inhibition at 5.2 µg/mL": 96.4}
{"smiles": "CCCCN(Cc1ccc(C(F)(F)F)cc1)C(=O)Nc1ccc(C)cc1C", "note": "[1-(n-Butyl)-1-(4-trifluoromethylbenzyl)-3-(2,4-dimethylphenyl)urea]", "inhibition at 5.2 µg/mL": 93.3}
{"smiles": "CCCCN(Cc1ccccc1)C(=O)Nc1cc(Cl)c(NC(=O)CCl)c(Cl)c1", "note": "[1-(n-Butyl)-1-(benzyl)-3-[4-(chloroacetamido)-3,5-dichlorophenyl]urea]", "inhibition at 5.2 µg/mL": 72.9}
{"smiles": "CCCCN(CCc1cccc(Br)c1)C(=O)Nc1ccc(C)cc1C", "note": "[1-(n-Butyl)-1-[2-(3-bromophenyl)ethyl]-3-(2,4-dimethylphenyl)urea]", "inhibition at 5.2 µg/mL": 97}
{"smiles": "CCCCN(CCc1cccc(OC)c1)C(=O)Nc1ccc(C)cc1C", "note": "[1-(n-Butyl)-1-[2-(3-methoxyphenyl)ethyl]-3-(2,4-dimethylphenyl)urea]", "inhibition at 5.2 µg/mL": 98.3}
{"smiles": "CCCCN(CCc1ccc(Cl)cc1)C(=O)Nc1ccc(C)cc1C", "note": "[1-(n-Butyl)-1-[2-(4-chlorophenyl)ethyl]-3-(2,4-dimethylphenyl)urea]", "inhibition at 5.2 µg/mL": 93.3}
{"smiles": "CCCCN(CCc1ccc(F)cc1)C(=O)Nc1ccc(C)cc1C", "note": "[1-(n-Butyl)-1-[2-(4-fluorophenyl)ethyl]-3-(2,4-dimethylphenyl)urea]", "inhibition at 5.2 µg/mL": 96.1}
{"smiles": "CCCCN(CCCc1ccc(OC)c(OC)c1)C(=O)Nc1ccc(C)cc1C", "note": "[1-(n-Butyl)-1-[3-(3,4-dimethoxyphenyl)propyl]-3-(2,4-dimethylphenyl)urea]", "inhibition at 5.2 µg/mL": 36.4}
{"smiles": "CCCCCCc1ccc(CN(CCCC)C(=O)Nc2ccc(C)cc2C)cc1", "note": "[1-(n-Butyl)-1-[4-(n-hexyl)benzyl]-3-(2,4-dimethylphenyl)urea]", "inhibition at 5.2 µg/mL": 93.8}
{"smiles": "CCCCN(Cc1ccccc1)C(=O)Nc1cc(Cl)ccc1O", "note": "[1-(n-Butyl)-1-benzyl-3-(2-hydroxy-5-chlorophenyl)urea]", "inhibition at 5.2 µg/mL": 85.6}
{"smiles": "CCCCN(Cc1ccccc1)C(=O)Nc1ccccc1[N+](=O)[O-]", "note": "[1-(n-Butyl)-1-benzyl-3-(2-nitrophenyl)urea]", "inhibition at 5.2 µg/mL": 37}
{"smiles": "CCCCN(Cc1ccccc1)C(=O)Nc1cccc(Cl)c1O", "note": "[1-(n-Butyl)-1-benzyl-3-(3-chloro-2-hydroxyphenyl)urea]", "inhibition at 5.2 µg/mL": 71}
{"smiles": "CCCCN(Cc1ccccc1)C(=O)Nc1cc(Cl)c(N)c(Cl)c1", "note": "[1-(n-Butyl)-1-benzyl-3-(4-amino-3,5-dichlorophenyl)urea]", "inhibition at 5.2 µg/mL": 61.1}
{"smiles": "CCCCN(Cc1ccccc1)C(=O)Nc1cc(Cl)c(NC(=O)C(F)(F)F)c(Cl)c1", "note": "[1-(n-Butyl)-1-benzyl-3-(4-trifluoroacetylamino-3,5-dichlorophenyl)urea]", "inhibition at 5.2 µg/mL": 87.8}
{"smiles": "CCCCCCCCCCN(Cc1ccccc1)C(=O)Nc1ccc(C)cc1C", "note": "[1-(n-Decyl)-1-benzyl-3-(2,4-dimethylphenyl)urea]", "inhibition at 5.2 µg/mL": 96.1}
{"smiles": "CCCCCCCN(C(=O)Nc1cc(C)c(C)cc1C)c1ccco1", "note": "[1-(n-Heptyl)-1-(2-furyl)-3-(2,4,5-trimethylphenyl)urea]", "inhibition at 5.2 µg/mL": 93.8}
{"smiles": "CCCCCCCN(C(=O)Nc1c(Cl)cc(Cl)cc1Cl)c1ccco1", "note": "[1-(n-Heptyl)-1-(2-furyl)-3-(2,4,6-trichlorophenyl)urea]", "inhibition at 5.2 µg/mL": 96.1}
{"smiles": "CCCCCCCN(CCc1ccccc1)C(=O)Nc1cc(Cl)c(Cl)cc1Cl", "note": "[1-(n-Heptyl)-1-(2-phenylethyl)-3-(2,4,5-trichlorophenyl)urea]", "inhibition at 5.2 µg/mL": 77.3}
{"smiles": "CCCCCCCN(CCc1ccccc1)C(=O)Nc1cccc(C(F)(F)F)c1", "note": "[1-(n-Heptyl)-1-(2-phenylethyl)-3-(3-trifluoromethylphenyl)urea]", "inhibition at 5.2 µg/mL": 88.4}
{"smiles": "CCCCCCCN(Cc1ccc(CCCC)cc1)C(=O)Nc1cc(Cl)c(Cl)cc1Cl", "note": "[1-(n-Heptyl)-1-(4-n-butylbenzyl)-3-(2,4,5-trichlorophenyl)urea]", "inhibition at 5.2 µg/mL": 46.5}
{"smiles": "CCCCCCCN(Cc1ccc(CCCC)cc1)C(=O)Nc1cccc(C(F)(F)F)c1", "note": "[1-(n-Heptyl)-1-(4-n-butylbenzyl)-3-(3-trifluoromethylphenyl)urea]", "inhibition at 5.2 µg/mL": 85}
{"smiles": "CCCCCCCN(Cc1ccc(CCCC)cc1)C(=O)Nc1ccc(C(=O)O)cc1", "note": "[1-(n-Heptyl)-1-(4-n-butylbenzyl)-3-(4-carboxyphenyl)urea]", "inhibition at 5.2 µg/mL": 61.8}
{"target": "T1, fatty acyl CoA: cholesterol acyl transferase (ACAT)", "assay": "Inhibition of fatty acyl CoA:cholesterol acyl transferase (ACAT), rat adrenal enzyme", "assay_type": "biochemical", "conditions": "rat adrenal ACAT; several concentrations", "method": "as §1, §2, §3, §4", "units": {"IC50": "nM"}}
{"smiles": "Cc1cc(Cl)cc(C)c1NC(=O)N(CCCCCC(C)O)Cc1ccc(CC(C)(C)C)cc1", "note": "(centres unmarked) [1-(6-Hydroxyheptyl)-1-[4-(2,2-dimethylpropyl)benzyl]-3-(4-chloro-2,6-dimethylphenyl)urea]", "IC50": 1130}
